Source: PMC3970552 (Neuropharmacology, 2013)

Experiments:
α3K183Cβ2 nAChR = α3K183Cβ2 nAChR (Rattus norvegicus, UniProt P04757+P12390, K210C); experiment: Two-electrode voltage-clamp concentration-response in Xenopus oocytes; assay type: cell-based
α3G181Cβ2 nAChR [1] = biological target: T1, α3G181Cβ2 nAChR (Rattus norvegicus, UniProt P04757+P12390, G208C); experiment: as above; assay type: cell-based
α3L158CK183Cβ2 nAChR [2] = biological target: T2, α3L158CK183Cβ2 nAChR (Rattus norvegicus, UniProt P04757+P12390, K210C/L185C); experiment: as above; assay type: cell-based
T2 sequence (P04757 26-499 L185C/K210C): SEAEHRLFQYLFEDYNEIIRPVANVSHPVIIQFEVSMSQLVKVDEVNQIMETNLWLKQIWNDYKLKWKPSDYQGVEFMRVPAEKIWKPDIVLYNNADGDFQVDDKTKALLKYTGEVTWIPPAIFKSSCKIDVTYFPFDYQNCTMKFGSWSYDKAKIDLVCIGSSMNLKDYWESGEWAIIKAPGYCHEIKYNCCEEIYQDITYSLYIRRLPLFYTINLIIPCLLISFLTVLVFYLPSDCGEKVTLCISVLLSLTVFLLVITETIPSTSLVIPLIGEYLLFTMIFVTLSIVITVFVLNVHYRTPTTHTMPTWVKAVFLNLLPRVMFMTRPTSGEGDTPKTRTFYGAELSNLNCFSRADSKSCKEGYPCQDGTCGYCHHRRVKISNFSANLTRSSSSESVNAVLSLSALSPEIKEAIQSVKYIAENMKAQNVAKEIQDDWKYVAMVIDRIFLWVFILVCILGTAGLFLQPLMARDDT
T2 sequence (P12390 25-500): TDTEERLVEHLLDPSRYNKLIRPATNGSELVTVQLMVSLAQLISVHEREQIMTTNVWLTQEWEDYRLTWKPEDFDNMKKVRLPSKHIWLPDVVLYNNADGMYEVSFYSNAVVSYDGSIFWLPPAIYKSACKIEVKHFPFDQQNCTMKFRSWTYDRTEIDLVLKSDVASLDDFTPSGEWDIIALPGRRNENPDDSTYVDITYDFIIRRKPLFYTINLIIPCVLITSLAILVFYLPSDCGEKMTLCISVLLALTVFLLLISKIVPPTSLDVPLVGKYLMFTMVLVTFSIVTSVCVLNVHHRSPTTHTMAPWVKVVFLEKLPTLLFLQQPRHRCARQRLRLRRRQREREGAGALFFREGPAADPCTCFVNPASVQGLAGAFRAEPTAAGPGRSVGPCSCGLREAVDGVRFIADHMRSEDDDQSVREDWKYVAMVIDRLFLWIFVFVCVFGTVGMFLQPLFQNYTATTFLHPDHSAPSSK

α3A179Cβ2 nAChR = α3A179Cβ2 nAChR (Rattus norvegicus, UniProt P04757+P12390, A179C/A206C); experiment: as above; assay type: cell-based
α3A179Cβ2 nAChR, sequence (P04757 26-499 A179C/A206C): as the sequence (P04757 26-499 L185C/K210C) above, with A154C, C160L, A181C, C185K counted along it
α3A179Cβ2 nAChR, sequence (P12390 25-500, stated change not applied): as the sequence (P12390 25-500) above

α3L158CA179Cβ2 nAChR [3] = biological target: T3, α3L158CA179Cβ2 nAChR (Rattus norvegicus, UniProt P04757+P12390, A206C/L185C); experiment: as above; assay type: cell-based; details: naïve oocytes
T3 sequence (P04757 26-499 L185C/A206C): as the sequence (P04757 26-499 L185C/K210C) above, with A181C, C185K counted along it
T3 sequence (P12390 25-500, stated change not applied): as the sequence (P12390 25-500) above

α3L158CG181Cβ2 nAChR [4] = biological target: T4, α3L158CG181Cβ2 nAChR (Rattus norvegicus, UniProt P04757+P12390, G208C/L185C); experiment: as above; assay type: cell-based
T4 sequence (P04757 26-499 L185C/G208C): as the sequence (P04757 26-499 L185C/K210C) above, with G183C, C185K counted along it
T4 sequence (P12390 25-500): as the sequence (P12390 25-500) above

wild type α3β2 nAChR = wild type α3β2 nAChR (Rattus norvegicus, UniProt P04757+P12390); details: ref Cesa et al., 2012, cited from earlier work
wild type α3β2 nAChR, sequence (P04757 26-499): as the sequence (P04757 26-499 L185C/K210C) above, with C160L, C185K counted along it
wild type α3β2 nAChR, sequence (P12390 25-500): as the sequence (P12390 25-500) above

α3L158Cβ2 nAChR [5] = biological target: T5, α3L158Cβ2 nAChR (Rattus norvegicus, UniProt P04757+P12390, L185C); experiment: Two-electrode voltage-clamp concentration-response in Xenopus oocytes; assay type: cell-based
T5 sequence (P04757 26-499 L185C): as the sequence (P04757 26-499 L185C/K210C) above, with C185K counted along it
T5 sequence (P12390 25-500): as the sequence (P12390 25-500) above

α3L158Cβ2 nAChR [6] = biological target: T5, α3L158Cβ2 nAChR; experiment: Oxidation/reduction treatment, evoked currents; assay type: cell-based; details: ACh + Mor currents
α3L158CK183Cβ2 nAChR [7] = biological target: T2, α3L158CK183Cβ2 nAChR; experiment: Oxidation/reduction treatment; assay type: cell-based; details: for IDTT/Icontrol: DTT treatment; for decrease of ACh-evoked currents: 125 μM ACh challenge
α3L158CA179Cβ2 nAChR [8] = biological target: T3, α3L158CA179Cβ2 nAChR; experiment: Oxidation/reduction treatment; assay type: cell-based; details: for IDTT/Icontrol: 40 μM DTT; for ITCEP/Icontrol: 40 μM TCEP
α3G181Cβ2 nAChR [9] = biological target: T1, α3G181Cβ2 nAChR; experiment: Oxidation/reduction treatment, evoked currents; assay type: cell-based; details: ACh + Mor currents
α3L158CG181Cβ2 nAChR [10] = biological target: T4, α3L158CG181Cβ2 nAChR; experiment: Oxidation/reduction treatment; assay type: cell-based; details: for ACh/Mor-evoked current, % of the control: after H2O2 + ACh + Mor oxidation
α3G181Cβ2 nAChR [11] = biological target: T1, α3G181Cβ2 nAChR; experiment: MTS-dansyl treatment, evoked currents; assay type: cell-based; details: 100 μM ACh currents
α3L158Cβ2 nAChR [12] = biological target: T5, α3L158Cβ2 nAChR; experiment: MTS-dansyl treatment, evoked currents; assay type: cell-based; details: 5 μM ACh currents
α3L158CG181Cβ2 nAChR [13] = biological target: T4, α3L158CG181Cβ2 nAChR; experiment: MTS-dansyl probing of free sulfhydryls, evoked currents; assay type: cell-based
[14] = ACh alone, Hill fit, naïve oocytes
[15] = DTT after treatment with H2O2 only
[16] = ACh + 10 μM Mor, asymptote at saturating ACh, normalized to highest ACh alone
[17] = Mor alone, relative to internal ACh control
[18] = ACh titration + 10 μM Mor, naïve oocytes

T1 sequence (P04757 26-499 G208C): as the sequence (P04757 26-499 L185C/K210C) above, with C160L, G183C, C185K counted along it
T1 sequence (P12390 25-500): as the sequence (P12390 25-500) above
α3K183Cβ2 nAChR, sequence (P04757 26-499 K210C): as the sequence (P04757 26-499 L185C/K210C) above, with C160L counted along it
α3K183Cβ2 nAChR, sequence (P12390 25-500): as the sequence (P12390 25-500) above

In the case of `CC(=O)OCC[N+](C)(C)C` [ACh, acetylcholine], the “ACh Response nH” value (α3K183Cβ2 nAChR; ACh alone, Hill fit) is reported as 2.43 ± 0.78 [9], the “ACh Response nH” value (α3G181Cβ2 nAChR [1]; ACh alone, Hill fit) is reported as 1.10 ± 0.11 [5] and the “ACh Response nH” value (α3L158CK183Cβ2 nAChR [2]; [14]) is reported as 1.11 ± 0.14 [6]. For the same compound, the “ACh Response nH” value (α3A179Cβ2 nAChR; ACh alone, Hill fit) was 0.79 ± 0.08 [8], the “ACh Response nH” value (α3L158CA179Cβ2 nAChR [3]; ACh alone, Hill fit) was 1.19 ± 0.20 [7] and the “ACh Response nH” value (α3L158CG181Cβ2 nAChR [4]; [14]) was 0.93 ± 0.23 [5]. For the same compound, the “ACh Response nH” value (wild type α3β2 nAChR; ACh alone, Hill fit) was 0.75 ± 0.07 and the “ACh Response nH” value (α3L158Cβ2 nAChR [5]; ACh alone, Hill fit) was 0.80 ± 0.11 [6] ^b.
For `O[C@@H](CS)[C@@H](O)CS` [DTT], the IDTT/IH2O2 (α3L158Cβ2 nAChR [6]) was 0.96 ± 0.17, the “IDTT/Icontrol (ACh + Mor)” value (α3L158CK183Cβ2 nAChR [7]; DTT post-oxidation) was 1.02 ± 0.02 and the “IDTT/Icontrol (ACh)” value (α3L158CK183Cβ2 nAChR [7]; DTT post-oxidation) was 0.97 ± 0.03. It also gave an IDTT/Icontrol (α3L158CK183Cβ2 nAChR [7]; 125 μM ACh) of 1.10 ± 0.01, an IDTT/Icontrol (α3L158CK183Cβ2 nAChR [7]; 125 μM ACh + 10 μM Mor) of 1.19 ± 0.03 and an IDTT/Icontrol (α3L158CA179Cβ2 nAChR [8]; 24 μM ACh) of 1.30 ± 0.08. For the same compound, the IDTT/Icontrol (α3L158CA179Cβ2 nAChR [8]; 24 μM ACh + 10 μM Mor) was 1.26 ± 0.07, the “IDTT/Icontrol (ACh + Mor)” value (α3L158CA179Cβ2 nAChR [8]; [15]) was 1.06 ± 0.06 and the “IDTT/Icontrol (ACh)” value (α3L158CA179Cβ2 nAChR [8]; [15]) was 0.99 ± 0.04. The IDTT/IH2O2 (α3G181Cβ2 nAChR [9]) was 0.96 ± 0.06 and the “increase of ACh-evoked current” value (α3L158CG181Cβ2 nAChR [10]; 40 μM DTT 5 min on naive oocytes, prior to H2O2, challenge 100 μM ACh) was 25%.
In the case of `OO` [H2O2], the IH2O2/Icontrol (α3L158Cβ2 nAChR [6]) is reported as 0.78 ± 0.08, the “decrease of ACh-evoked currents” value (α3L158CK183Cβ2 nAChR [7]; H2O2 + ACh + Mor treatment) is reported as 28% and the “decrease of ACh-evoked currents” value (α3L158CK183Cβ2 nAChR [7]; H2O2 alone treatment) is reported as 13%. For the same compound, the “decrease of evoked currents” value (α3L158CA179Cβ2 nAChR [8]; two oxidation conditions (H2O2 alone; H2O2 + ACh + Mor), two challenges (24 μM ACh; 24 μM ACh + 10 μM Mor)) was 25–28%, the IH2O2/Icontrol (α3G181Cβ2 nAChR [9]) was 0.94 ± 0.03 and the “decrease of ACh-evoked current” value (α3L158CG181Cβ2 nAChR [10]; 4.4 mM H2O2 + 100 μM ACh + 10 μM Mor, 5 min, challenge 100 μM ACh) was 26%. For the same compound, the “decrease of ACh + Mor-evoked current” value (α3L158CG181Cβ2 nAChR [10]; 4.4 mM H2O2 + 100 μM ACh + 10 μM Mor, 5 min, challenge 100 μM ACh + 10 μM Mor) was 26%, the “effect on ACh-evoked currents” value (α3L158CG181Cβ2 nAChR [10]; 4.4 mM H2O2 alone, 5 min, challenge 100 μM ACh) was “no apparent effect” and the “decrease of currents evoked by ACh and Mor” value (α3L158CG181Cβ2 nAChR [10]; 4.4 mM H2O2 alone, 5 min, challenge 100 μM ACh + 10 μM Mor) was 24%. For the same compound, the “decrease of ACh-evoked current relative to post-reduction value” (α3L158CG181Cβ2 nAChR [10]; H2O2 + ACh + Mor oxidation after DTT, challenge 100 μM ACh) was 52%, the “decrease of ACh/Mor-evoked current relative to post-reduction value” (α3L158CG181Cβ2 nAChR [10]; H2O2 + ACh + Mor oxidation after DTT, challenge 100 μM ACh + 10 μM Mor) was 46% and the Ipost-oxidation/Icontrol (α3L158CG181Cβ2 nAChR [10]; H2O2 + ACh + Mor treatment, 5 μM ACh currents (MTS probing experiments)) was 0.66 ± 0.05. The “ACh/Mor-evoked current, % of the control” value (α3L158CG181Cβ2 nAChR [10]; challenges every 100 sec, first response) was “about 60%” and the “ACh/Mor-evoked current, % of the control” value (α3L158CG181Cβ2 nAChR [10]; five successive challenges in 500 sec) was at most 80%.
With `CN(C)c1cccc2c(S(=O)(=O)NCCSS(C)(=O)=O)cccc12` [MTS-dansyl, dansylamidoethyl methanesthiosulfonate] the “decrease of ACh currents after MTS-dansyl” value (α3G181Cβ2 nAChR [11]) was 21 ± 4%, the “decrease of ACh currents after MTS-dansyl” value (α3L158Cβ2 nAChR [12]) was 44 ± 2% and the “decrease of ACh/Mor-evoked currents by MTS” value (α3L158CG181Cβ2 nAChR [13]; after H2O2 + ACh + Mor oxidation, 5 μM ACh + 10 μM Mor) was 8%. For the same compound, the “decrease of ACh current after MTS” value (α3L158CG181Cβ2 nAChR [13]; after H2O2 alone treatment, 5 μM ACh) was 27%, the “decrease of ACh + Mor current after MTS” value (α3L158CG181Cβ2 nAChR [13]; after H2O2 alone treatment, 5 μM ACh + 10 μM Mor) was 21% and the “decrease of ACh/Mor-evoked currents by MTS” value (α3L158CG181Cβ2 nAChR [13]; after standard oxidation then 200–300 sec wash, 5 μM ACh + 10 μM Mor) was 14%. The “decrease of ACh-evoked current after MTS-dansyl” value (α3L158CG181Cβ2 nAChR [13]; naive oocytes, 50 μM MTS-dansyl 2 min, 5 μM ACh) was 33% and the “decrease of ACh/Mor-evoked current after MTS-dansyl” value (α3L158CG181Cβ2 nAChR [13]; naive oocytes, 50 μM MTS-dansyl 2 min, 5 μM ACh + 10 μM Mor) was 14%.
For `Cc1ccsc1C=CC1=NCCCN1C.O=C(O)C(O)C(O)C(=O)O` [Mor, 1,4,5,6-tetrahydro-1-methyl-2-(2-[3-methyl-2-thienyl]ethenyl)pyrimidine, tartrate salt], the Mor potentiation (α3K183Cβ2 nAChR; ACh + 10 μM Mor vs ACh alone) was “negligible Mor potentiation”, the “Mor Modulation Response Emax” value (α3K183Cβ2 nAChR; [16]) was 0.97 ± 0.02 and the “Mor Modulation Response nH” value (α3K183Cβ2 nAChR; ACh titration + 10 μM Mor) was 1.61 ± 0.22. The EC50 (α3G181Cβ2 nAChR [1]) was 41 ± 26 µM, the “Mor Modulation Response Emax” value (α3G181Cβ2 nAChR [1]; [16]) was 2.3 ± 0.1 and the “Mor Modulation Response nH” value (α3G181Cβ2 nAChR [1]; ACh titration + 10 μM Mor) was 1.08 ± 0.12. The “Emax, activation by Mor alone” value (α3G181Cβ2 nAChR [1]; [17]) was 0.32 ± 0.05, the Mor potentiation (α3L158CK183Cβ2 nAChR [2]; ACh + 10 μM Mor vs ACh alone) was “effectively no potentiation” and the “Mor Modulation Response nH” value (α3L158CK183Cβ2 nAChR [2]; [18]) was 0.95 ± 0.16. The “Mor Modulation Response Emax” value (α3A179Cβ2 nAChR; [16]) was 1.6 ± 0.1, the “Mor Modulation Response nH” value (α3A179Cβ2 nAChR; ACh titration + 10 μM Mor) was 1.79 ± 0.75 and the “Mor Modulation Response nH” value (α3L158CA179Cβ2 nAChR [3]; ACh titration + 10 μM Mor) was 1.70 ± 0.50. For the same compound, the EC50 (α3L158CG181Cβ2 nAChR [4]) was 28 ± 10 µM, the “Mor Modulation Response nH” value (α3L158CG181Cβ2 nAChR [4]; [18]) was 1.18 ± 0.25 and the “Emax, activation by Mor alone” value (α3L158CG181Cβ2 nAChR [4]; [17]) was 0.074 ± 0.009. For the same compound, the “Mor Modulation Response nH” value (wild type α3β2 nAChR; ACh titration + 10 μM Mor) was 1.37 ± 0.80, the EC50 (α3L158Cβ2 nAChR [5]) was 12 ± 7 µM and the “Mor Modulation Response Emax” value (α3L158Cβ2 nAChR [5]; [16]) was 1.6 ± 0.1. The “Mor Modulation Response nH” value (α3L158Cβ2 nAChR [5]; ACh titration + 10 μM Mor) was 1.47 ± 0.39 and the “Emax, activation by Mor alone” value (α3L158Cβ2 nAChR [5]; [17]) was 0.021 ± 0.002.
`O=C(O)CCP(CCC(=O)O)CCC(=O)O` [TCEP, tris(2-carboxyethyl)phosphine] showed an ITCEP/Icontrol (α3L158CA179Cβ2 nAChR [8]; ACh) of 1.21 ± 0.04 and an ITCEP/Icontrol (α3L158CA179Cβ2 nAChR [8]; ACh + Mor) of 1.24 ± 0.05.
